Five molecules from US6265437A, “Aminoalkanesulphonic acid derivatives, their preparation and their use as medicaments” (LIPHA, priority 2000, dated 2001) can be followed below.

The assay in a line: displacement of tritiated calcium acetylhomotaurinate from a preparation of rat brain section. Format: binding. As to conditions: in vitro, displacement of titiated calcium acetylhomotaurinate. The source says: In in vitro tests, it has furthermore been shown that these compounds have the ability to displace titiated calcium acetylhomotaurinate from a preparation of rat brain section.

Structures are written as SMILES.

With `CC(C)(C)C(=O)NCCCS(=O)(=O)O` [Example 1, calcium 3-(2-2-(dimethyl)propanoylamino)propanesulphonate], the IC50 worked out at 46.9 µM. Next, `CC(C)C(=O)NCCCS(=O)(=O)O` [Example 3, magnesium 3-(2-(methyl)propanoylamino)propanesulphonate]: 28.9 µM; `CC(C)CC(=O)NCCCS(=O)(=O)O` [Example 14, magnesium 3-(3-(methyl)butanoylamino)propanesulphonate]: 42 µM; `CC(C)(C)C(=O)NCCCS(=O)(=O)O` [Example 15, magnesium 3-(2,2-(dimethyl)propanoylamino)propanesulphonate]: 49.5 µM.

Regarding `CC(=O)NC(C)CCS(=O)(=O)O` (centres unmarked) [Example 17, calcium 3-(acetylamino)-3-methylpropanesulphonate], the concentration for half-maximal inhibition (IC50) was determined as 93 µM.

As a reminder, the IC50 is the concentration that gives 50% inhibition.
